In a melting point compilation (Tetko et al.; mined from patent text by program, amines drawn as free bases though some values may be those of a salt):

melting point | SMILES
150 to 158 °C | N#Cc1ccccc1-c1ccc2[nH]c(CCl)nc2c1
97 to 98 °C | Cc1oc(-c2ccccc2)nc1COc1ccc(CCc2oc(-c3ccccc3)nc2CC#N)cc1
46 to 47 °C | COc1ccc(Br)cc1OCCCCCc1ccc(F)cc1
184 °C | CCN1CCN([C@](O)(CNC(=O)c2ccc(OCc3cc(C)nc4ccccc34)cc2)C(N)=O)CC1
140 to 141 °C | COc1ccc2c(c1OC)CN(C=O)CCc1cc(OCc3ccccc3)ccc1CC2
135 to 137 °C | O=C1CC(CCc2ccccc2)Nc2ccccc2N1Cc1ccccc1 (centres undefined)
113 to 114 °C | CC(=O)N[C@@H](Cc1cn(Cc2ccccc2)cn1)C(=O)OCc1ccccc1
210 °C | Cc1cccc(N(CCO)Cc2ccc3nc(N)n(Cc4nc(C)ccc4O)c3c2)c1
103 to 104 °C | CCCCCc1nc(C)c(C(=O)OCC)n1Cc1ccc2oc(-c3ccccc3-c3nnn[nH]3)c(Br)c2c1
149 to 151 °C | CNC(=O)C(=NOC)c1ccccc1COc1ccc2c(c1)OCC2=O
226 °C | CCOC(=O)/C=C/c1cc2c(Nc3ccc4[nH]ccc4c3)c(C#N)cnc2s1
233 to 235 °C | COC(=O)c1ccc2nc(-n3ccnc3)nc(NCCOCCO)c2c1
99 to 100 °C | O=C(O)C(CCCc1cccc2ccccc12)c1ccccc1 (centres undefined)
105 to 107 °C | COCCN1CCN(CCc2ccc(Nc3ncc4c(n3)-c3ccccc3C(c3cccc(Br)c3)C4)cc2)CC1 (centres undefined)
160 to 161 °C | CCCCCCCNC(=O)Nc1ccccc1C(=O)NC1CCN(CCSc2nc(-c3ccccc3)c(-c3ccccc3)[nH]2)CC1
85 to 86 °C | CCn1ncnc1COc1nn2c(-c3cc(F)ccc3F)nncc2c1C(C)(C)CC

melting point | SMILES
204 to 206 °C | CCCCc1ncc(/C=C(\Cc2cccs2)C(N)=O)n1Cc1ccc(C(N)=O)cc1
236 °C | CN1C=Nc2cc(Cl)c3cc4ccccc4cc3c2C1
48 to 53 °C | O=Cc1cccc(OCc2ccc3ccccc3n2)c1
238 to 240 °C | CCc1cc2c(ccc(=O)n2Cc2ccc(-c3ccccc3C(=O)O)cc2)c(CC)n1
179 to 181 °C | COc1ccc(-n2nc(-c3ccccc3O)nc2-c2ccccc2O)cc1
170 to 171 °C | COC(=O)c1cc(-c2ccc(OC)c(F)c2)nn(Cc2ccc(Cl)cc2)c1=O
237 to 238 °C | CSc1cc(Cl)nn2c(-c3ccnc(N)c3)c(-c3ccc(F)c(C)c3)nc12
209 to 210 °C | Cc1cc2c(-c3ccccc3)c(CO)n(C)c(=O)c2cc1C
269 to 270 °C | c1ccc(-c2cc(-c3csc(Nc4ccncc4)n3)on2)cc1
195 to 198 °C | CN1C(=O)N(c2c(Cl)cccc2Cl)Cc2cnc(NCc3ccccc3)nc21
97 to 98 °C | CSc1nc(Oc2ccccc2)c(C(=O)O)c(Oc2ccccc2)n1
75 to 76 °C | C(=C\c1nc(COc2cccc(CCCCn3ccnc3)c2)co1)/c1ccccc1
145 to 148 °C | COc1ccc(C=CCCCCOc2ccc(S(=O)(=O)c3cccc(C(=O)O)c3)cc2CCC(=O)O)cc1
166 to 168 °C | O=C1N(Cc2ccc(F)cc2)Cc2cncn2C1(Cc1ccccc1)c1ccc(Br)cc1 (centres undefined)
126 °C | N#Cc1cccc2nc(CCC#Cc3ccccn3)oc12
173 to 175 °C | COc1ccc(C2=CC(=Nc3c(C)cc(C)cc3C)N(C)CN2C(C)=O)cc1OC

Further lines, the compound ahead of its results:

SMILES | melting point
CS(=O)(=O)N1CCN([C@@H](CNC(=O)c2ccc(OCc3ccc(F)cc3)cc2)C(=O)NO)CC1 | 194 °C
FC(F)(F)c1cccc2snnc12 | 41 to 44 °C
O=C(COC(F)(F)F)Nc1ccccc1 | 64 to 66.5 °C
O=C(O)c1cc(Oc2ncc(C(F)(F)F)cc2Cl)ccc1[N+](=O)[O-] | 131 °C
O=C(NCCN1CCCC1)c1ccc(OCc2ccc(-c3ccccc3)cc2)cc1 | 173 to 175 °C
CCC1C(c2ccc(OC(Cl)C(=O)O)cc2Cl)=CC(=O)CC1C (centres undefined) | 183 °C
Nc1nc(N)nc(OCc2ccccc2)n1 | 184 to 185 °C
CCCNC(=O)C1=CCC2C3CCc4cc(O)ccc4C3CCC12C (centres undefined) | 168 to 169 °C
N=C(Nc1ccccc1-c1ccc(F)cc1)N1CCC(O)CC1 | 132 to 133 °C
COC(=O)C(C)(C)Cc1cc2ccc(O)cc2n1C | 125 to 126 °C
N#Cc1c(N2CCN(C(=O)c3cccs3)CC2)c2cccnc2n(CC2CC2)c1=O | 189 °C
CC=CC=C[C@@H]1C[C@H](CC(=O)O)OC2(CCCCC2)O1 (relative stereo) | 144 to 146 °C
COC(=O)N1CCN2c3ccc(N4CC(CNC(C)=O)OC4=O)cc3OCC2C1 (centres undefined) | 185 to 190 °C
CC(=O)Nc1ccc(C(=O)C2CCN(CC(=O)c3ccc(F)cc3)CC2)cc1 | 168 to 170 °C
O=C1NC(=O)C(c2ccccc2)=C1Nc1cccc(Cl)c1 | 188 °C
CC(O)(c1ccccc1)c1cncs1 (centres undefined) | 86 to 87 °C
O=C(OCc1cccc(Cl)c1)c1ncn2c1[C@@H]1CCCN1C(=O)c1c(Cl)cccc1-2 | 114 to 116 °C
CN1C(=O)C2C3C=CC(CC3)C2(c2ccc(Cl)c(Cl)c2)C1=O (centres undefined) | 125 to 128 °C
CC(C)(C)c1cc(CS[C@@H]2CCCCCC[C@H]2SCc2cc(C(C)(C)C)cc(C(C)(C)C)c2O)c(O)c(C(C)(C)C)c1 (relative stereo) | 122 to 123 °C
CCC1=C(C)C(=O)NC1C (centres undefined) | 83 °C
O=C1NN=C(C=Cc2ccc([N+](=O)[O-])cc2)CS1 | 231 to 240 °C
CC1(C)CC1C(=O)Nc1ccc(C2=NNC(=O)CC2)cc1 (centres undefined) | 213 to 214 °C
COC(=O)Cc1ccc2c(c1)CCN2C(C)=O | 104 to 105 °C

SMILES | melting point
COc1c(NC(=O)c2ccc(C)c(-n3cc(C(=O)Cl)nn3)c2)cc(C(C)(C)C)cc1NS(C)(=O)=O | 205 to 207 °C
O=CC(Cl)=Cc1cccc(Oc2ccc([N+](=O)[O-])c([N+](=O)[O-])c2)c1 | 100 to 101 °C
C=CCc1c2c(cc(OCc3ccccc3)c1C(C)(C)C)CC(C)(C)O2 | 73 to 74 °C
CSc1ccc(COC(=O)N2CCN(CC3(C)Cn4cc([N+](=O)[O-])nc4O3)CC2)cc1 (centres undefined) | 118 to 120 °C
OCC1c2cc(Cl)ccc2Oc2ccc(Cl)cc21 | 134 to 136 °C
O=C(O)C(Cc1ccccc1)C(=O)NC(CS)Cc1ccccc1 (centres undefined) | 65 to 70 °C
Fc1cccc(Cl)c1[C@@H]1C[C@H](c2ccc(Cl)cc2)Nc2ncnn21 (relative stereo) | 227 to 228 °C
CS(=O)(=O)N(CCBr)N(S(C)(=O)=O)S(C)(=O)=O | 147 to 148 °C
C[C@@H](CN1C(=O)c2ccccc2C1=O)CC(F)(F)F | 45 to 47 °C
O=C(CC1CCCCC1=O)c1ccc(Cl)c(Cl)c1 (centres undefined) | 78 to 79 °C
NCc1noc(-c2ncn3c2[C@@H]2CCN2C(=O)c2c(Cl)cccc2-3)n1 | 206 to 208 °C
COC(=O)C1=C(C)NC(C)=C(C(=O)OC)C1C1CCC(C(=O)O)C1 (centres undefined) | 177 to 179 °C
O=C1OC2(CC(c3ccccc3C(F)(F)F)=NO2)c2ccccc21 (centres undefined) | 149 to 150 °C
COC1=C(OC)C(=O)C2=C(CCC(CCOc3ccc(Cl)cc3)CC2)C1=O | 117 to 119 °C
Cc1cc(Cl)cc(C(=O)Nc2cccc(Cl)c2)n1 | 174 °C
CCOC(=O)c1c[nH]c2c(OCOC)ccc(OC)c2c1=O | 175 to 177 °C
CC1(C)CCC(C)(C)c2cc(-c3cc(-c4ccc(CO)cc4)ccc3-c3ccccc3)ccc21 | 134 to 136 °C
O=C(CBr)CC(=O)Nc1cccc(C(F)(F)F)c1 | 66 to 68 °C
CS(=O)(=O)N=c1oc2ccccc2o1 | 161 to 163 °C
CCN(CC)C(=O)CN1C(=O)C(NC(=O)Nc2ccccc2Cl)N=C(c2ccccc2)c2ccccc21 (centres undefined) | 173 to 175 °C
O=C(O)c1cn(C2CC2)c2c(F)c(N3CCC[C@H]3CO)c(F)cc2c1=O | 209 to 210 °C
CCOC(=O)C1CN(c2ccccc2)C(=O)C1=O (centres undefined) | 153 to 155 °C
O=C(O)c1cccc([N+](=O)[O-])c1SCc1ccccc1 | 152 to 153 °C

SMILES | melting point
CCN(CC)C(=O)n1cnc(S(=O)(=O)CC2CCC2)n1 | 113 to 116 °C
COc1ccc(C(=O)Cc2c(Cl)cncc2Cl)c2c1OCCO2 | 158 to 160 °C
O=c1[nH]c2c(n3ccnc13)C(NS(=O)(=O)c1ccccc1)c1ccccc1-2 (centres undefined) | 216 °C
N#Cc1nn(Cc2ccccc2)c2ccccc12 | 91 °C
N#CCCNC(=O)c1cccc(-c2cccc3nc(C(O)c4cccc(C(F)(F)F)c4)cn23)c1 (centres undefined) | 223 to 224 °C
CC(C)CC(NC(=O)Cc1ccc(NC(=O)Nc2c(Cl)cccc2Cl)cc1)c1ncc(CCC(=O)O)s1 (centres undefined) | 148 to 150 °C
CSc1cc(Cl)ccc1C(=O)C(C#N)C(=O)c1cc(C(F)(F)F)cc(C(F)(F)F)c1 (centres undefined) | 146 to 149 °C
CC[Si](CC)(CC)c1ccccc1S(N)(=O)=O | 85.6 °C
CS(=O)(=O)c1ccc2c(c1)C=C(C(=O)O)C(C(F)(F)F)O2 (centres undefined) | 208 to 212 °C
O=C(Nc1cccc(-n2nc(C(F)(F)F)cc2C(F)(F)F)c1)c1cccc(Cl)c1Cl | 119 to 121 °C
O=C(c1ccc(N2CCCC2)cc1)C1CCN(Cc2ccccc2)CC1 | 154 to 156 °C
CONS(=O)(=O)c1ccc(Cl)s1 | 65.5 to 66.5 °C
CC(=O)c1cnn(C)c1S(N)(=O)=O | 153 to 162 °C
S=C=Nc1cc(-c2nc(-c3ccco3)no2)ccc1Cl | 131 to 132 °C
O=C(O)C(CC(c1ccc(OCc2ccc3ccccc3n2)cc1)c1ccc(OCc2ccc3ccccc3n2)cc1)=NO | 104 to 108 °C
CCOC(=O)Cn1nnnc1C(=O)OCC | 26 to 29.5 °C
OC(Cc1ccccn1)c1ccccc1 (centres undefined) | 105 to 107 °C
CC(C)(C)[Si](C)(C)Oc1ccc(NC(=O)CBr)cc1 | 112 to 113 °C
O=S1(=O)CCN2CCCC(c3ccc(Oc4ccc(C(F)(F)F)cc4)cc3)C2=N1 (centres undefined) | 191 to 193 °C
CC(=O)N1c2ccccc2Sc2c1ccc(O)c2Cl | 214 °C
OC1CSC(Oc2cc(-c3cncnc3)cnc2Cl)C(O)C1O (centres undefined) | 174 to 189 °C
